# From ChEMBL document CHEMBL4406882, “The plant-derived chalcone Xanthoangelol targets the membrane of Gram-positive bacteria” (Bioorg Med Chem, 2019)
# Calls of active or inactive are those of the source. No cut-off for these calls is given here.
# How the values were obtained:
# [1] = system: Bacillus subtilis; test: Induction of YqjE protein expression in Bacillus subtilis 168 at 2.3 uM incubated for 15 mins by 35S-methionine pulse labeling based 2D-PAGE analysis; type: functional, organism-based
# [2] = system: Bacillus subtilis; test: Induction of Tpx protein expression in Bacillus subtilis 168 at 2.3 uM incubated for 15 mins by 35S-methionine pulse labeling based 2D-PAGE analysis; type: functional, organism-based
# [3] = (§1) Cytotoxicity against human MRC5 cells assessed as reduction in cell viability incubated for 48 hrs by resazurin reagent based assay; details: human, MRC5 cells
# [4] = system: MRC5; test: as §1; details: Homo sapiens, MRC5, 48 h
# [5] = system: Bacillus subtilis; test: Induction of ArgB protein expression in Bacillus subtilis 168 at 2.3 uM incubated for 15 mins by 35S-methionine pulse labeling based 2D-PAGE analysis; type: functional, organism-based
# [6] = system: THP-1; test: (§2) Cytotoxicity against human THP1 cells assessed as reduction in cell viability incubated for 48 hrs by resazurin reagent based assay; details: Homo sapiens, THP-1, 48 h
# [7] = as §2; set-up: species or system THP-1; details: human, THP1 cells
# [8] = system: Enterococcus faecalis; test: Antibacterial activity against vancomycin-resistant Enterococcus faecalis ATCC 51299 by broth micro dilution method; type: functional
# [9] = Selectivity index, ratio of IC50 for human MRC5 cells to MIC90 for methicillin-resistant Staphylococcus aureus ATCC 700699; type: toxicity; details: read-out: Selectivity Index
# [10] = system: Bacillus subtilis; test: Induction of LiaH.1 protein expression in Bacillus subtilis 168 at 2.3 uM incubated for 15 mins by 35S-methionine pulse labeling based 2D-PAGE analysis; type: functional, organism-based
# [11] = system: Bacillus subtilis; test: Induction of ClpC protein expression in Bacillus subtilis 168 at 2.3 uM incubated for 15 mins by 35S-methionine pulse labeling based 2D-PAGE analysis; type: functional, organism-based
# [12] = system: Bacillus subtilis; test: Induction of HisG protein expression in Bacillus subtilis 168 at 2.3 uM incubated for 15 mins by 35S-methionine pulse labeling based 2D-PAGE analysis; type: functional, organism-based
# [13] = system: Bacillus subtilis; test: Induction of AhpF protein expression in Bacillus subtilis 168 at 2.3 uM incubated for 15 mins by 35S-methionine pulse labeling based 2D-PAGE analysis; type: functional, organism-based
# [14] = system: Bacillus subtilis; test: Induction of YfmJ protein expression in Bacillus subtilis 168 at 2.3 uM incubated for 15 mins by 35S-methionine pulse labeling based 2D-PAGE analysis; type: functional, organism-based
# [15] = system: Bacillus subtilis; test: Induction of PspA protein expression in Bacillus subtilis 168 at 2.3 uM incubated for 15 mins by 35S-methionine pulse labeling based 2D-PAGE analysis; type: functional, organism-based
# [16] = system: Bacillus subtilis; test: Induction of YkgB protein expression in Bacillus subtilis 168 at 2.3 uM incubated for 15 mins by 35S-methionine pulse labeling based 2D-PAGE analysis; type: functional, organism-based
# [17] = system: Acinetobacter baumannii; test: Antibacterial activity against multidrug-resistant Acinetobacter baumannii ATCC BAA-1605 by broth micro dilution method; type: functional
# [18] = Selectivity index, ratio of IC50 for human THP1 cells to MIC90 for methicillin-resistant Staphylococcus aureus ATCC 700699; type: toxicity; details: read-out: Selectivity Index
# [19] = system: Bacillus subtilis; test: Induction of YwfI protein expression in Bacillus subtilis 168 at 2.3 uM incubated for 15 mins by 35S-methionine pulse labeling based 2D-PAGE analysis; type: functional, organism-based
# [20] = system: Bacillus subtilis; test: Induction of YqiG protein expression in Bacillus subtilis 168 at 2.3 uM incubated for 15 mins by 35S-methionine pulse labeling based 2D-PAGE analysis; type: functional, organism-based
# [21] = system: Staphylococcus aureus; test: Antibacterial activity against methicillin-resistant Staphylococcus aureus ATCC 700699 assessed as delay in growth at 6.25 uM measured for 24 hrs relative to control; type: functional
# [22] = system: Bacillus subtilis; test: Induction of GroEL.2 protein expression in Bacillus subtilis 168 at 2.3 uM incubated for 15 mins by 35S-methionine pulse labeling based 2D-PAGE analysis; type: functional, organism-based
# [23] = system: Bacillus subtilis; test: Induction of Hom protein expression in Bacillus subtilis 168 at 2.3 uM incubated for 15 mins by 35S-methionine pulse labeling based 2D-PAGE analysis; type: functional, organism-based
# [24] = system: Erythrocyte; test: Hemolytic activity against human erythrocytes at =>100 uM measured up to 24 hrs; type: ADME, cell-based
# [25] = system: Bacillus subtilis; test: Induction of SodA protein expression in Bacillus subtilis 168 at 2.3 uM incubated for 15 mins by 35S-methionine pulse labeling based 2D-PAGE analysis; type: functional, organism-based
# [26] = Selectivity index, ratio of IC50 for human CLS54 cells to MIC90 for methicillin-resistant Staphylococcus aureus ATCC 700699; type: toxicity; details: read-out: Selectivity Index
# [27] = system: Bacillus subtilis; test: Induction of YdjE protein expression in Bacillus subtilis 168 at 2.3 uM incubated for 15 mins by 35S-methionine pulse labeling based 2D-PAGE analysis; type: functional, organism-based
# [28] = system: Enterococcus faecalis; test: Antibacterial activity against vancomycin-resistant Enterococcus faecalis ATCC 700221 by broth micro dilution method; type: functional
# [29] = system: Bacillus subtilis; test: Induction of Cah protein expression in Bacillus subtilis 168 at 2.3 uM incubated for 15 mins by 35S-methionine pulse labeling based 2D-PAGE analysis; type: functional, organism-based
# [30] = system: Staphylococcus aureus; test: Induction of membrane integrity impairment in methicillin resistant Staphylococcus aureus Mu50 assessed as increase in release of ATP at 1 to 16 times MIC incubated for 1 hr by BacTiter-Glo Assay; type: functional, organism-based
# [31] = system: Staphylococcus aureus; test: Antibacterial activity against methicillin-resistant Staphylococcus aureus ATCC 700699 by broth micro dilution method; type: functional
# [32] = system: Bacillus subtilis; test: Induction of NfrA protein expression in Bacillus subtilis 168 at 2.3 uM incubated for 15 mins by 35S-methionine pulse labeling based 2D-PAGE analysis; type: functional, organism-based
# [33] = system: Bacillus subtilis; test: Induction of GroEL.1 protein expression in Bacillus subtilis 168 at 2.3 uM incubated for 15 mins by 35S-methionine pulse labeling based 2D-PAGE analysis; type: functional, organism-based
# [34] = system: Bacillus subtilis; test: Induction of YhfK protein expression in Bacillus subtilis 168 at 2.3 uM incubated for 15 mins by 35S-methionine pulse labeling based 2D-PAGE analysis; type: functional, organism-based
# [35] = system: Bacillus subtilis; test: Induction of GroEL.3 protein expression in Bacillus subtilis 168 at 2.3 uM incubated for 15 mins by 35S-methionine pulse labeling based 2D-PAGE analysis; type: functional, organism-based
# [36] = system: Staphylococcus aureus; test: Induction of membrane integrity impairment in methicillin-resistant Staphylococcus aureus ATCC 700699 at 12.5 to 25 uM measured for 3 hrs by PI staining based fluorescence assay; type: functional, organism-based
# [37] = system: Bacillus subtilis; test: Induction of PdhA protein expression in Bacillus subtilis 168 at 2.3 uM incubated for 15 mins by 35S-methionine pulse labeling based 2D-PAGE analysis; type: functional, organism-based
smiles,measurement,setting,value
CC(C)=CCC/C(C)=C/Cc1c(O)ccc(C(=O)/C=C/c2ccc(O)cc2)c1O [XANTHOANGELOL],Activity,[1],Active
same,Activity,[2],Active
same,IC90 at 48 h,[3],27.6 µM
same,IC50,[4],21.7 µM
same,Activity,[5],Active
same,IC50,[6],23.6 µM
same,IC90 at 48 h,[7],39.1 µM
same,MIC,[8],6.25 µM
same,selectivity ratio,[9],16.3
same,Activity,[10],Active
same,Activity,[11],Active
same,Activity,[12],Active
same,Activity,[13],Active
same,Activity,[14],Active
same,Activity,[15],Active
same,Activity,[16],Active
same,MIC,[17],> 100 µM
same,selectivity ratio,[18],17.7
same,Activity,[19],Active
same,Activity,[20],Active
same,Activity,[21],100%
same,Activity,[22],Active
same,Activity,[23],Active
same,Activity,[24],Toxic
same,Activity,[25],Active
same,selectivity ratio,[26],44.2
same,Activity,[27],Active
same,MIC,[28],3.12 µM
same,Activity,[29],Active
same,Activity,[30],Active
same,MIC,[31],3.12 µM
same,MIC50,[31],0.96 µM
same,MIC90,[31],1.33 µM
same,Activity,[32],Active
same,Activity,[33],Active
same,Activity,[34],Active
same,Activity,[35],Active
same,Activity,[36],Active
same,Activity,[37],Active
